Read-outs that look alike come from different tables or passages of the source.
Tests used:
CARM1 [1] = molecular target: T1, CARM1 (Homo sapiens, UniProt Q86X55); assay: Isothermal Calorimetric Titration with enzyme CARM1; assay type: binding; details: enzyme in cell titrated against inhibitor
T1 sequence (Q86X55 1-608): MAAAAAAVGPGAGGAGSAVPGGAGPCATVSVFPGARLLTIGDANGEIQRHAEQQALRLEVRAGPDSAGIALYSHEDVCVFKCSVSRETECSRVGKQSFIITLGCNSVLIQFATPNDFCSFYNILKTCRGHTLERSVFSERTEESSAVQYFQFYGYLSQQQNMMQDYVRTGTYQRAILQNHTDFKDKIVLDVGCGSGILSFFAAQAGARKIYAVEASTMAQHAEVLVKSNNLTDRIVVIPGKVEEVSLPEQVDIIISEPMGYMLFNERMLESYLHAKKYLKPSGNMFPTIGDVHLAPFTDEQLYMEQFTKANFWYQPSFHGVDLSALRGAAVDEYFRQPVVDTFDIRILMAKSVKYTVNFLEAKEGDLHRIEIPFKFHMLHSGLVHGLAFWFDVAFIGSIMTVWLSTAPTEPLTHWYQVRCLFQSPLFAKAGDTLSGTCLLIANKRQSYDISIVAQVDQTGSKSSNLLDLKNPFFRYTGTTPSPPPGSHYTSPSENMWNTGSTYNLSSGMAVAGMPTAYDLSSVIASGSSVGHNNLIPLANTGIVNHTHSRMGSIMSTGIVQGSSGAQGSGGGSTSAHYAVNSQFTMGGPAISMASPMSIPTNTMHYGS
Description: (§1) The pattern of inhibition is uncompetitive indicating the mode of inhibition is via the Enzyme-Substrate complex, the binding of the inhibitor has been characterized by Isothermal Calorimetric Titration wherein either the substrate (histone H3) or enzyme (CARM1) was taken in the cell and titrated against the inhibitor (2,3,7,8TETRAHYDROXY[1]BENZOPYRANO[5,4,3(DE)[1]BENZOPYRAN5,10-DIONE).

histone H3 = histone H3 (Homo sapiens, UniProt P68431); assay: Isothermal Calorimetric Titration with substrate histone H3; assay type: binding; details: substrate in cell titrated against inhibitor
Description: FIG. 2: Binding Isotherm of Histone H3 with LTK20 Isothermal Calorimetric Titration carried out with the protein histone H3 and the ligand LTK20, which is the inhibitor.
as §1

[2] = molecular target: T2, arginine methyltransferase CARM1 (Homo sapiens, UniProt Q86X55); assay: Filterbinding and gel (fluorography) HMTase assay against CARM1; assay type: biochemical
T2 sequence (Q86X55 1-608): T1 sequence (Q86X55 1-608)
Description: (§2) FIG. 1a: Effect of LTK20 on Histone Modifying Enzymes (Filterbinding Assay) Filterbinding Assay of LTK20 carried out with the Histone acetyltransferases p300, PCAF and Histone methyltransferases CARM1, G9a. Lane 1—histones alone, lane 2—Enzyme control, lane 3—DMSO control, lane 4-5, LTK20 in increasing concentration.
(§3) FIG. 1b: Effect of LTK20 on Histone Modifying Enzymes (Fluorography) Gel Assay of LTK20 carried out with Histone acetyltransferases p300, PCAF and Histone methyltransferases CARM1, G9a. Lane 1—histones alone, lane 2—Enzyme control, lane 3—DMSO control, lane 4 & 5—LTK20 in increasing concentration.
(§4) (2,3,7,8-TETRAHYDROXY[1]BENZOPYRANO[5,4,3(DE)[1]BENZOPYRAN5,10-DIONE) was identified as a specific inhibitor of the arginine methyltransferase CARM1 with an IC50 of 20 μM, both by filterbinding (FIG. 1a) and fluorography assays (FIG. 1b).

[3] = tested on: CARM1 methylation sites on histone H3, R17 and R26 in HeLa cells; assay: HeLa cells, western analysis of acid extracted histones; assay type: cell-based; details: for Methylation of H3R17: 50 μM, 24 hours
Experimental: (§5) FIGS. 3a and 3b: Preferential Inhibition of CARM1 Mediated Methylation Site-specific inhibition of arginine methylation of histone H3 observed in the presence of LTK20 both in vitro and in vivo. H3R17 and H3R26 are both CARM1 methylation sites on histone H3.
In vivo characterization was done by treating HeLa cells with the molecule at 50 μM concentration for a period of 24 hours, and the acid extracted histones were probed with antibodies against CARM1 methylation sites on histone H3, R17 and R26.

[4] = molecular target: T3, lysine methyltransferase G9a (Homo sapiens, UniProt Q96KQ7); assay: Filterbinding and gel (fluorography) HMTase assay against G9a; assay type: biochemical
T3 sequence (Q96KQ7 1-1210): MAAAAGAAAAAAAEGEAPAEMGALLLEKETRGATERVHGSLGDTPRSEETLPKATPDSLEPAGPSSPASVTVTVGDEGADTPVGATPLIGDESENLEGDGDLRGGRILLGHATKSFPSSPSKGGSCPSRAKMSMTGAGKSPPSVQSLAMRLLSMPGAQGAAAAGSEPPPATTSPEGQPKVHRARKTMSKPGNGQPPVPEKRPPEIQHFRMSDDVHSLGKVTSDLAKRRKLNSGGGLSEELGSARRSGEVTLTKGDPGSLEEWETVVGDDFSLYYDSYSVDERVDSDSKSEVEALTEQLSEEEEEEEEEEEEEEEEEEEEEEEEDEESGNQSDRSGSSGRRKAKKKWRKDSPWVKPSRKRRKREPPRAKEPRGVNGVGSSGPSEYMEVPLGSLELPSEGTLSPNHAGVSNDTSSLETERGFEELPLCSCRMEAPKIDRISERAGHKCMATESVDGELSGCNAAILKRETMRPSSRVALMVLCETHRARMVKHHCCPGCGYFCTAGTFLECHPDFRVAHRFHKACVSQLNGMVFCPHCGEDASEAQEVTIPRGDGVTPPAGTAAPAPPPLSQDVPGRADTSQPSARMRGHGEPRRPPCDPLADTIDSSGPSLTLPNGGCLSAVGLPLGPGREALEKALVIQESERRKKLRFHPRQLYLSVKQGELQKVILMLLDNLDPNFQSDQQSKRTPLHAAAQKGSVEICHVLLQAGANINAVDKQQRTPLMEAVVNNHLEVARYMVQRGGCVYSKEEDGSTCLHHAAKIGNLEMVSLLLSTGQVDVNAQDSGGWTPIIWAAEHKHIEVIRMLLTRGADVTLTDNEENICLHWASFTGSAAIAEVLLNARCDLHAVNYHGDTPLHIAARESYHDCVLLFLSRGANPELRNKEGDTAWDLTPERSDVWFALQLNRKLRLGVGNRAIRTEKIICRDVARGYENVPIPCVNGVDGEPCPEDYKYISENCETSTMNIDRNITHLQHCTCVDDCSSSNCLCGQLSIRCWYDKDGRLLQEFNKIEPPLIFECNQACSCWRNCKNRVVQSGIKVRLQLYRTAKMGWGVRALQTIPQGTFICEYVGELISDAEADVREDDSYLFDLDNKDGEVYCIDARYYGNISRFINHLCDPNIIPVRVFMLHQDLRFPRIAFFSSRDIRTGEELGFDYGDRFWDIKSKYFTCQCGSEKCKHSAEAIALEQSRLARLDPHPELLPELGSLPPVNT
Description: as §2, §3, §4

U2OS cells = assay: Modulation of p53 and p21 protein levels in U2OS cells by western analysis; assay type: cell-based; details: for p21 levels: UV irradiated U2OS cells, vs DMSO control
Description: FIG. 4: Immunoblot Analysis with p21 Antibody UV irradiated U2OS cells treated with or without inhibitors. The lysate was probed with antibody against p21. p21 levels show an increase in the presence of LTK20 as compared to the DMSO control.
Physiological effect of the inhibitor was characterized by selecting the p53 system, since CARM1 mediated histone methylation is known to cooperatively enhance the transcriptional activation of p53 responsive genes. […] U2OS, which is a p53 positive cell line was used for the assay, and on treatment with molecule at 50 μM concentration for a period of 24 hours, p53 levels were altered. Since, the p53 responsive genes had to be assayed, p21 was selected (there is no apoptosis, therefore the apoptosis genes were not selected). UV irradiated cells were treated with (2,3,7,8-TETRAHYDROXY[1]BENZOPYRANO[5,4,3(DE)[1]BENZOPYRAN5,10-DIONE) for a period of 24 hours and the lysate was probed with antibody against p21. […] This clearly indicates a possible implication of this molecule in the tumor suppressor p53 mediated transcriptional activation.

[5] = molecular target: histone acetyltransferase p300 (Homo sapiens, UniProt Q09472); assay: Filterbinding and gel (fluorography) HAT assay against p300; assay type: biochemical
Description: as §2, §3, §4

[6] = tested on: CARM1 methylation sites on histone H3, R17 and R26 in HeLa cells; assay: HeLa cells, immunofluorescence analysis; assay type: cell-based; details: 50 μM, 24 hours
Experimental: FIGS. 3c and 3d: Immunofluorescence Analysis of LTK20 Treated HeLa Cells
In vivo characterization was done by treating HeLa cells with the molecule at 50 μM concentration for a period of 24 hours, and the cells were probed with antibodies against CARM1 methylation sites on histone H3, R17 and R26 and were visualized by anti rabbit alexa fluor 488 antibody.

CARM1 [7] = molecular target: T1, CARM1; assay: Kinetic analysis of the pattern of inhibition of CARM1 methylation of histone H3; assay type: biochemical; details: recombinant histone H3 and tritiated SAM varied; two inhibitor concentrations
Experimental: Since the inhibitor is specific to CARM1 mediated methylation of histones which is directed to the histone H3, histone H3 was used as the substrate for the kinetic analysis. Initially, the inhibition was confirmed using the recombinant histone as the substrate. CARM1 methylation reaction was carried out using increasing concentration of histone H3 and the methyl group donor, tritiated SAM keeping the enzyme concentration constant. Two different inhibitor concentrations were assayed.

[8] = molecular target: histone acetyltransferase PCAF (Homo sapiens, UniProt Q92831); assay: Filterbinding and gel (fluorography) HAT assay against PCAF; assay type: biochemical
Description: as §2, §3, §4

[9] = molecular target: CARM1 methylation sites on histone H3, R17 and R26 (Homo sapiens, UniProt P68431); assay: In vitro CARM1 methylation reaction, western analysis with site-specific antibodies; assay type: biochemical
Experimental: as §5
In vitro CARM1 methylation reaction was carried out in the presence or absence of inhibitors, and probed with antibodies against the specific CARM1 methylation sites on histone H3, R17 and R26.

[10] = filterbinding, HeLa core histones
[11] = listed as (2,3,7,8-TETRAHYDROXY[1]BENZOPYRANO[5,4,3(DE)[1]BENZOPYRAN5,10-DIONE)

Sequence of histone acetyltransferase p300 (Q09472 whole entry): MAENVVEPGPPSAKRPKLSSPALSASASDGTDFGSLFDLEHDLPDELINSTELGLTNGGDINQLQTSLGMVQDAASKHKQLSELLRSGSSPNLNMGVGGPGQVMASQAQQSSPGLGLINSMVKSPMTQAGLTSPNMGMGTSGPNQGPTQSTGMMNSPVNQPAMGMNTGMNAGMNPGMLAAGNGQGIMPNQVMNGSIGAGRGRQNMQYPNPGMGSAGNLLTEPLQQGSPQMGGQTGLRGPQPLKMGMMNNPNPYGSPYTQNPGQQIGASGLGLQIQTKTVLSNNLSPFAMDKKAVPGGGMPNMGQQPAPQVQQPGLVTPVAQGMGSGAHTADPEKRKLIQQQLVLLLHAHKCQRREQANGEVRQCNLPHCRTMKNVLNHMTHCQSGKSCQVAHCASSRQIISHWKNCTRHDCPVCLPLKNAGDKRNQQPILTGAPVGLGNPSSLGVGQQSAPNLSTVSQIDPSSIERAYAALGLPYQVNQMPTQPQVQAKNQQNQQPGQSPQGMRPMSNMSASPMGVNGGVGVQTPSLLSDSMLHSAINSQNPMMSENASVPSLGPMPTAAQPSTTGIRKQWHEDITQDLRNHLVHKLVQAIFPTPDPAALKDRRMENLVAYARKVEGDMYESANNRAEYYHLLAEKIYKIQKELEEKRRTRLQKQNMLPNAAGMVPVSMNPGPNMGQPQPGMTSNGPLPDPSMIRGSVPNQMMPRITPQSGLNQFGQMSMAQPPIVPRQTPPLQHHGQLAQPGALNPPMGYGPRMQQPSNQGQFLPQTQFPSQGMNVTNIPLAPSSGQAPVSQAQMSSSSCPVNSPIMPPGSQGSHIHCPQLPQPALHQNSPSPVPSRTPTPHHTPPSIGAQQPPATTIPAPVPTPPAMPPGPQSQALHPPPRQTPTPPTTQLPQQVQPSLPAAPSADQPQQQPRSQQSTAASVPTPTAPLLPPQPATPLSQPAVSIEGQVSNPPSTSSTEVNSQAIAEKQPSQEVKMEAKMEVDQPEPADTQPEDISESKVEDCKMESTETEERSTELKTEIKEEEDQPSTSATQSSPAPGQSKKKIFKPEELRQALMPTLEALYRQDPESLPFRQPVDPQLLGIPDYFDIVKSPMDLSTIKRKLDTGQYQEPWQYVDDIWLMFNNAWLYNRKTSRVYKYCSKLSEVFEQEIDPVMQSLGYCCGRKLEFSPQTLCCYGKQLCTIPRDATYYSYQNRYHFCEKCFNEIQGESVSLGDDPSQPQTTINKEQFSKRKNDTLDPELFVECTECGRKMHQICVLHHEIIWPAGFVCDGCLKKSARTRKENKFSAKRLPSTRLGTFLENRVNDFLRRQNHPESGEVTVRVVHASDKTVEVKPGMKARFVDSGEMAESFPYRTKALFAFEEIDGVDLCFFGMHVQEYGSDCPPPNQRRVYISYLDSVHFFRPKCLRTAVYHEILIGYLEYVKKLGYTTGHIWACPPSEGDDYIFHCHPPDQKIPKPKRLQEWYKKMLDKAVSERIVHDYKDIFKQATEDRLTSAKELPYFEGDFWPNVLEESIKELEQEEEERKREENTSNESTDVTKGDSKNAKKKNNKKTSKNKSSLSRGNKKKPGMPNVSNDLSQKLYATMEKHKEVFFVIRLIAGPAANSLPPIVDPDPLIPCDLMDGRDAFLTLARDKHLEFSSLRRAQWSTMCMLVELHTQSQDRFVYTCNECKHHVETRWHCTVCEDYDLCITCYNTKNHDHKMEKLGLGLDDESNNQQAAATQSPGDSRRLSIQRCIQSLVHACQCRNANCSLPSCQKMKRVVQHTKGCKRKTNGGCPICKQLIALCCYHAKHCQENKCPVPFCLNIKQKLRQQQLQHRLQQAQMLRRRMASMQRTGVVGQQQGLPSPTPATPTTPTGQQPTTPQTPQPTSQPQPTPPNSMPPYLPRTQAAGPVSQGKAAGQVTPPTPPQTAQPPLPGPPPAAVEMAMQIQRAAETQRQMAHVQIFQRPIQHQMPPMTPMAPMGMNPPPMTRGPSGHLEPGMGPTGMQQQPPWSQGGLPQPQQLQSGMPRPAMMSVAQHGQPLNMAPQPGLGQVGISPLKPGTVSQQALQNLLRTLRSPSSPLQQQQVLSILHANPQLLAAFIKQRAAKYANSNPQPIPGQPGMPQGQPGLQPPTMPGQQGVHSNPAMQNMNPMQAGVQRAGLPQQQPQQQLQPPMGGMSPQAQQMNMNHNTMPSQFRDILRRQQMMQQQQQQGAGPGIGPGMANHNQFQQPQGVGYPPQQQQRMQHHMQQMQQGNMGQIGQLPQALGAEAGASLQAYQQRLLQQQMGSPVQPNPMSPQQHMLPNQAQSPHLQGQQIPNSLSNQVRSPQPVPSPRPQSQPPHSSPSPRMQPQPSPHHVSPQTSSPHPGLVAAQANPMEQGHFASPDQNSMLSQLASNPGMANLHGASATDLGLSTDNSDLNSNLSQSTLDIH
Sequence of histone acetyltransferase PCAF (Q92831 whole entry): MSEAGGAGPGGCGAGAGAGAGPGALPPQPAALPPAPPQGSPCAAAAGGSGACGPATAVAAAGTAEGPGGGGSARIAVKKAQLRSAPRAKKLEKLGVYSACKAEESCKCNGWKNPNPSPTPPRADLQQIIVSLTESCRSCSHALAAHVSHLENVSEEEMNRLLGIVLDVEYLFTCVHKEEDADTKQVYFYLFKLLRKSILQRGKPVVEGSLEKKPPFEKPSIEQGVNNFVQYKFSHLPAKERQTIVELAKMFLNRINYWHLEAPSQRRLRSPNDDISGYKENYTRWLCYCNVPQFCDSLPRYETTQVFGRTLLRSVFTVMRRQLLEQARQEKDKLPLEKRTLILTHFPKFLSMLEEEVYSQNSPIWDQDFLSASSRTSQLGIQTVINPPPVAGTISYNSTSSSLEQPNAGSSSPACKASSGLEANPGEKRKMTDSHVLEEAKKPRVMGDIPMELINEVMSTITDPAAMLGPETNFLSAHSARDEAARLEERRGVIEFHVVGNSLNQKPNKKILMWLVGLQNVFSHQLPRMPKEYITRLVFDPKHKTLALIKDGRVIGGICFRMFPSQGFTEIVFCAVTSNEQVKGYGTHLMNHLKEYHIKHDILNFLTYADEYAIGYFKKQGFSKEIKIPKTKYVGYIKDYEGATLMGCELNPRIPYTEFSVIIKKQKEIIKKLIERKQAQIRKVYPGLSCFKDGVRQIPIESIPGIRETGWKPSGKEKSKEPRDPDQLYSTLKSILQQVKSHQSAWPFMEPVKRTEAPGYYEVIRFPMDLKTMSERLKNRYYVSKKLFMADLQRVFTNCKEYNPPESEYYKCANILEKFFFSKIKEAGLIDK

## O=c1oc2c(O)c(O)cc3c(=O)oc4c(O)c(O)cc1c4c23 [LTK20, (2,3,7,8-TETRAHYDROXY[1]BENZOPYRANO [5,4,3(DE)[1]BENZOPYRAN 5,10-DIONE)]
CARM1 [1]
  Binding to CARM1 (ITC): no binding of the molecule to the enzyme
Histone H3
  Binding to histone H3 (ITC): fits to the two sequential binding site model
Histone H3; listed as (2,3,7,8TETRAHYDROXY[1]BENZOPYRANO[5,4,3(DE)[1]BENZOPYRAN5,10-DIONE)
  Binding to histone H3 (ITC): binds to the substrate at two sequential binding sites
[2]; HeLa core histones as substrate, both filterbinding and fluorography assays
  IC50: 20 µM
[2]; [10]
  Effect on CARM1 activity (filterbinding assay): inhibits CARM1 activity
[2]; fluorography
  Effect on CARM1 activity (gel assay, fluorography): inhibits CARM1 activity
[3]
  Methylation of H3R26: getting methylated
  Methylation of H3R17: inhibited
[3]; [11]
  Methylation of H3R17: Site-specific inhibition of H3R17
[4]; [10]
  Effect on G9a activity (filterbinding assay): does not act on other enzymes
[4]; fluorography
  Effect on G9a activity (gel assay, fluorography): does not act on other enzymes
U2OS cells; U2OS cells
  Apoptosis: no apoptosis
U2OS cells; U2OS, 50 μM, 24 hours
  p53 levels: altered
U2OS cells; 24 hours
  p21 levels: increase
U2OS cells; 24 hours, listed as (2,3,7,8-TETRAHYDROXY[1]BENZOPYRANO[5,4,3(DE)[1]BENZOPYRAN5,10-DIONE)
  p21 levels: increase in p21 levels
[5]; filterbinding
  Effect on p300 activity (filterbinding assay): does not act on other enzymes
[5]; fluorography
  Effect on p300 activity (gel assay, fluorography): does not act on other enzymes
[6]
  Methylation of H3R17: Site-specific inhibition of H3R17
CARM1 [7]
  Pattern of CARM1 methylation inhibition: uncompetitive
[8]; filterbinding
  Effect on PCAF activity (filterbinding assay): does not act on other enzymes
[8]; fluorography
  Effect on PCAF activity (gel assay, fluorography): does not act on other enzymes
[9]
  Methylation of H3R17: inhibited
  Methylation of H3R26: getting methylated
[9]; [11]
  Methylation of H3R17: Site-specific inhibition of H3R17
